According to publication PMC8948245, “Mechanistic insights into the regulation of plant phosphate homeostasis by the rice SPX2 – PHR2 complex” (Nature Communications, 2022):

Assays:
[1] = target: T1, SPX2^1–280/PHR2^225–362 (rice) (Oryza sativa, UniProt Q6Z784, K143A/K147A); assay: co-expression coupled Ni-NTA pull-down (InsP6-dependent SPX2-PHR2 association); type: biochemical; settings: 1 mM InsP6, pH 8.0, 150 mM NaCl; indirect read-out
T1 construct: untagged full-length SPX2 (residues 1-280) co-expressed with 8xHis-tagged PHR2 225-362 in E. coli; 2:2 complex; with Protein PHOSPHATE STARVATION RESPONSE 2
T1 sequence (Q6Z784 whole entry K143A/K147A, the tested form may be a part): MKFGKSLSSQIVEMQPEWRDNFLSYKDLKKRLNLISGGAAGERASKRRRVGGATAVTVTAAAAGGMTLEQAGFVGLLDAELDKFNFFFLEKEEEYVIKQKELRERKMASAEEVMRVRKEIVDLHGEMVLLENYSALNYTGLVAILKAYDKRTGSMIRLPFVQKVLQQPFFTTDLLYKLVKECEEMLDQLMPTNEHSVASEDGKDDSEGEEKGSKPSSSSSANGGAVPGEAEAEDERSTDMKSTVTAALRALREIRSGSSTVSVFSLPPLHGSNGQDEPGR
T1 sequence (Q6Z156 225-362 partner): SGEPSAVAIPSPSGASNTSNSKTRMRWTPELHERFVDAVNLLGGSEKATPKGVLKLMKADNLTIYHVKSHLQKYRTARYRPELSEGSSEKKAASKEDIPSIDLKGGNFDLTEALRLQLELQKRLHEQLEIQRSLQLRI

[2] = target: T2, SPX2^1–280/PHR2^225–362 (rice) (Oryza sativa, UniProt Q6Z784, Y25F); assay: as above; type: biochemical; settings: 1 mM InsP6, pH 8.0, 150 mM NaCl; indirect read-out
T2 construct: untagged full-length SPX2 (residues 1-280) co-expressed with 8xHis-tagged PHR2 225-362 in E. coli; 2:2 complex; with Protein PHOSPHATE STARVATION RESPONSE 2
T2 sequence (Q6Z784 whole entry Y25F, the tested form may be a part): as the sequence (Q6Z784 whole entry K143A/K147A, the tested form may be a part) above, with Y25F, A143K, A147K counted along it
T2 sequence (Q6Z156 225-362 partner): as the sequence (Q6Z156 225-362 partner) above

AtSPX4 = target: T3, AtSPX4 (Arabidopsis thaliana, UniProt Q94A21); assay: analytical SEC (profile shift with InsP6); type: binding; settings: pH 8.0, 150 mM NaCl
T3 construct: gene SPX4; full-length, N-terminal 6xHis tag removed by drICE protease; E. coli BL21(DE3)
T3 sequence (Q94A21 1-318): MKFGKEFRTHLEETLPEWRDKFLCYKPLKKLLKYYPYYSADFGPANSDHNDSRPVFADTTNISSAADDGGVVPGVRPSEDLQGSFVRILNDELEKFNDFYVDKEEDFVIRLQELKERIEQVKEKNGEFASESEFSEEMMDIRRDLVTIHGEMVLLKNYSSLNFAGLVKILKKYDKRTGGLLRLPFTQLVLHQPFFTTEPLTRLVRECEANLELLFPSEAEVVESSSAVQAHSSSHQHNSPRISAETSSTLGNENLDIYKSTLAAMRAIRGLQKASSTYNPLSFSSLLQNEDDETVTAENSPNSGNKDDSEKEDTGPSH

[3] = target: T4, SPX2^1–280/PHR2^225–362 (rice) (Oryza sativa, UniProt Q6Z784, L28A); assay: co-expression coupled Ni-NTA pull-down (InsP6-dependent SPX2-PHR2 association); type: biochemical; settings: 1 mM InsP6, pH 8.0, 150 mM NaCl; indirect read-out
T4 construct: untagged full-length SPX2 (residues 1-280) co-expressed with 8xHis-tagged PHR2 225-362 in E. coli; 2:2 complex; with Protein PHOSPHATE STARVATION RESPONSE 2
T4 sequence (Q6Z784 whole entry L28A, the tested form may be a part): as the sequence (Q6Z784 whole entry K143A/K147A, the tested form may be a part) above, with L28A, A143K, A147K counted along it
T4 sequence (Q6Z156 225-362 partner): as the sequence (Q6Z156 225-362 partner) above

OsSPX4 = target: T5, OsSPX4 (Oryza sativa, UniProt Q10B79); assay: analytical SEC (profile shift with InsP6); type: binding; settings: pH 8.0, 150 mM NaCl
T5 construct: gene SPX4; full-length, N-terminal 6xHis tag removed by drICE protease; E. coli BL21(DE3)
T5 sequence (Q10B79 1-320): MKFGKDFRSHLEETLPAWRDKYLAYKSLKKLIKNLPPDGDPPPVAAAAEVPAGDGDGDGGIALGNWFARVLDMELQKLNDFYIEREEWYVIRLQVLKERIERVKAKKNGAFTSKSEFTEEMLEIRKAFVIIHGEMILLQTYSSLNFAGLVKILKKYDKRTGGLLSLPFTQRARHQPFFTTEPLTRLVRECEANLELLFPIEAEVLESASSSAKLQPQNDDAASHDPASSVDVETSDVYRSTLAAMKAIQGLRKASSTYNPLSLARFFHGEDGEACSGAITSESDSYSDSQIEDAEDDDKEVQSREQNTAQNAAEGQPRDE

OsSPX2^1-267/Δ47-64 = target: T6, OsSPX2^1-267/Δ47-64 (Oryza sativa, UniProt Q6Z784, DEL47-64); assay: analytical SEC and AUC (change of oligomeric state); type: binding; settings: AUC with or without 1 mM InsP6, pH 8.0, 150 mM NaCl, 18 °C; no PHR2
T6 construct: gene SPX2; residues 1-267 lacking 47-64, C-terminal 8xHis tag, excess SPX2 separated from co-expressed PHR2 231-362; E. coli; monomer with InsP6
T6 sequence (Q6Z784 with tags, fused parts or gaps DEL47-64): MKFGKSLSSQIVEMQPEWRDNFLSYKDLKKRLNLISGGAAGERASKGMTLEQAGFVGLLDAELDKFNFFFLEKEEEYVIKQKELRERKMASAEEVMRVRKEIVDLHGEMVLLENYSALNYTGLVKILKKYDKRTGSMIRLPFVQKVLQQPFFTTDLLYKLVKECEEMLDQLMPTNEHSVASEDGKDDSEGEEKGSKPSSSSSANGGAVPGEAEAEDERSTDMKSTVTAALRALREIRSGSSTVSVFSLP

AtSPX2 = target: T7, AtSPX2 (Arabidopsis thaliana, UniProt O48781); assay: analytical SEC (profile shift with InsP6); type: binding; settings: pH 8.0, 150 mM NaCl
T7 construct: gene SPX2; full-length, N-terminal 6xHis tag removed by drICE protease; E. coli BL21(DE3)
T7 sequence (O48781 1-287): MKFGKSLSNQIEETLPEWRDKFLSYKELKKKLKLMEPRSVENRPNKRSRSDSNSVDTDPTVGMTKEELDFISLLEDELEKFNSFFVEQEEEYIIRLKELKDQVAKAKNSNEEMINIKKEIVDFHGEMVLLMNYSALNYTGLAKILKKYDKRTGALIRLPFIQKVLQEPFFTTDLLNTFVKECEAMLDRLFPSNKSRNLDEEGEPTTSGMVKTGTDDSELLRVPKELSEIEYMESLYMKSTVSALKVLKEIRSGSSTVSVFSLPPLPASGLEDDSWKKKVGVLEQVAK

OsSPX1 = target: T8, OsSPX1 (Oryza sativa, UniProt Q69XJ0); assay: analytical SEC (profile shift with InsP6); type: binding; settings: pH 8.0, 150 mM NaCl
T8 construct: gene SPX1; full-length, N-terminal 6xHis tag removed by drICE protease; E. coli BL21(DE3)
T8 sequence (Q69XJ0 1-295): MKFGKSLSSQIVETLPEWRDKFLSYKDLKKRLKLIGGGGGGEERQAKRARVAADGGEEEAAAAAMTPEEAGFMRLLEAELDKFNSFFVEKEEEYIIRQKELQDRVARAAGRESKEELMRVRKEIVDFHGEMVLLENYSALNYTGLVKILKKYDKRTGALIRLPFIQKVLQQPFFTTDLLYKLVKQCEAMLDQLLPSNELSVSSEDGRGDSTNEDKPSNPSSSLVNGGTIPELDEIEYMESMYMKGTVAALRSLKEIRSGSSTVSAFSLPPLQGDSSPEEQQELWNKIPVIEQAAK

[4] = target: T9, SPX2^1–280/PHR2^225–362 (rice) (Oryza sativa, UniProt Q6Z784, Y25A); assay: co-expression coupled Ni-NTA pull-down (InsP6-dependent SPX2-PHR2 association); type: biochemical; settings: 1 mM InsP6, pH 8.0, 150 mM NaCl; indirect read-out
T9 construct: untagged full-length SPX2 (residues 1-280) co-expressed with 8xHis-tagged PHR2 225-362 in E. coli; 2:2 complex; with Protein PHOSPHATE STARVATION RESPONSE 2
T9 sequence (Q6Z784 whole entry Y25A, the tested form may be a part): as the sequence (Q6Z784 whole entry K143A/K147A, the tested form may be a part) above, with Y25A, A143K, A147K counted along it
T9 sequence (Q6Z156 225-362 partner): as the sequence (Q6Z156 225-362 partner) above

[5] = target: T10, SPX2^1–280/PHR2^225–362 (rice) (Oryza sativa, UniProt Q6Z784, K29A); assay: as above; type: biochemical; settings: 1 mM InsP6, pH 8.0, 150 mM NaCl; indirect read-out
T10 construct: untagged full-length SPX2 (residues 1-280) co-expressed with 8xHis-tagged PHR2 225-362 in E. coli; 2:2 complex; with Protein PHOSPHATE STARVATION RESPONSE 2
T10 sequence (Q6Z784 whole entry K29A, the tested form may be a part): as the sequence (Q6Z784 whole entry K143A/K147A, the tested form may be a part) above, with K29A, A143K, A147K counted along it
T10 sequence (Q6Z156 225-362 partner): as the sequence (Q6Z156 225-362 partner) above

[6] = target: T11, His-tagged PHR2^225–362 (rice PHR2, MYB domain and CC domain) (rice (Oryza sativa), UniProt Q6Z156 225-362); assay: AUC; sedimentation velocity of the purified SPX2/PHR2 complex, 25 mM Tris-HCl pH 8.0, 150 mM NaCl, 1 mM InsP6, 18 °C, 0.7 mg ml^-1; settings: both partners purified
T11 construct: pET21b, C-terminal 8×His tag; codon-optimised synthetic cDNA; also called PHR2-His; source: E. coli BL21(DE3), co-expressed with SPX2; not shown: 8×His, C-terminal, kept
T11 sequence (Q6Z156 225-362): as the sequence (Q6Z156 225-362 partner) above

[7] = target: the molecule itself; assay: cross-linking; mixture of PHR2^225–362-His complexes with SPX2-flag homodimer and SPX2/SPX2-flag heterodimer from the tandem pull-down; about 30 μM with 200 μM M2M, room temperature, 30 min; SDS-PAGE with or without 100 mM DTT

With O=P(O)(O)O[C@H]1[C@H](OP(=O)(O)O)[C@@H](OP(=O)(O)O)[C@H](OP(=O)(O)O)[C@@H](OP(=O)(O)O)[C@H]1OP(=O)(O)O [InsP6] the “co-expression coupled Ni-NTA pull-down (InsP6-dependent SPX2-PHR2 association)” value (“co-expression coupled Ni-NTA pull-down” below) [1] was “strongly reduced or abolished by the Y25F, Y25A, L28A, K29A, or K143A/K147A substitutions of SPX2”, the “co-expression coupled Ni-NTA pull-down” value [2] was “strongly reduced or abolished by the Y25F, Y25A, L28A, K29A, or K143A/K147A substitutions of SPX2” and the “analytical SEC (profile shift with InsP6)” value (AtSPX4) was “their SEC profiles differ strongly in the presence of InsP6”. For the same molecule, the “co-expression coupled Ni-NTA pull-down” value [3] was “strongly reduced or abolished by the Y25F, Y25A, L28A, K29A, or K143A/K147A substitutions of SPX2”, the “analytical SEC (profile shift with InsP6)” value (OsSPX4) was “their SEC profiles differ strongly in the presence of InsP6” and the “analytical SEC and AUC (change of oligomeric state)” value (OsSPX2^1-267/Δ47-64) was “InsP6 binding appears to stabilize the domain into a monomeric state”. The “analytical SEC (profile shift with InsP6)” value (AtSPX2) was “their SEC profiles differ strongly in the presence of InsP6”, the “analytical SEC (profile shift with InsP6)” value (OsSPX1) was “their SEC profiles differ strongly in the presence of InsP6” and the “co-expression coupled Ni-NTA pull-down” value [4] was “strongly reduced or abolished by the Y25F, Y25A, L28A, K29A, or K143A/K147A substitutions of SPX2”. The “co-expression coupled Ni-NTA pull-down” value [5] was “strongly reduced or abolished by the Y25F, Y25A, L28A, K29A, or K143A/K147A substitutions of SPX2”.

B1: full-length rice SPX2 (SPX2^1–280), untagged (natural protein, rice (Oryza sativa), UniProt Q6Z784 1-280, looked up)
chain: MKFGKSLSSQIVEMQPEWRDNFLSYKDLKKRLNLISGGAAGERASKRRRVGGATAVTVTAAAAGGMTLEQAGFVGLLDAELDKFNFFFLEKEEEYVIKQKELRERKMASAEEVMRVRKEIVDLHGEMVLLENYSALNYTGLVKILKKYDKRTGSMIRLPFVQKVLQQPFFTTDLLYKLVKECEEMLDQLMPTNEHSVASEDGKDDSEGEEKGSKPSSSSSANGGAVPGEAEAEDERSTDMKSTVTAALRALREIRSGSSTVSVFSLPPLHGSNGQDEPGR
notes: rice (Oryza sativa) SPX2 (OsSPX2), full length, residues 1-280; pBB75 vector without any tag; also called OsSPX2; source: E. coli BL21(DE3), co-expressed with PHR2
In the case of B1, the “stoichiometry N” value [6] is reported as 1 SPX2:PHR2 ratio (2:2).

B2: SPX2^K106C-flag (natural protein, rice (Oryza sativa), UniProt Q6Z784 1-280, looked up)
chain: MKFGKSLSSQIVEMQPEWRDNFLSYKDLKKRLNLISGGAAGERASKRRRVGGATAVTVTAAAAGGMTLEQAGFVGLLDAELDKFNFFFLEKEEEYVIKQKELRERCMASAEEVMRVRKEIVDLHGEMVLLENYSALNYTGLVKILKKYDKRTGSMIRLPFVQKVLQQPFFTTDLLYKLVKECEEMLDQLMPTNEHSVASEDGKDDSEGEEKGSKPSSSSSANGGAVPGEAEAEDERSTDMKSTVTAALRALREIRSGSSTVSVFSLPPLHGSNGQDEPGR
notes: rice (Oryza sativa) SPX2, residues 1-280, K106C; source: Ni-NTA pull-down and flag pull-down in tandem; not shown: 3×flag, N-terminal, kept
B2: binds [7].
